Data from patent US20210198259A1, “HETEROCYCLIC DERIVATIVES AND USE THEREOF” (C&C RESEARCH LABORATORIES, priority 2018, published 2021).
Structures can show the parent of a compound that is named as a salt.

Test system: not listed separately
Assay: Test for pharmacokinetics in ICR mice (oral)
Assay type: in vivo
Details: 50 mg/kg, ICR mouse, 5 mg/mL solution at 10 mL/kg, plasma
Protocol: As the administration solution for mice of the compounds prepared in the above
Examples, the compound of Example 55 of International Publication No. WO 2010/030785 and the compound of Example 4 of International Publication No. WO 2013/048214, 20% hydroxypropyl-β-cyclodextrin solution (99.75%) and 2N HCl (0.25%) were added sequentially to make 5 mg/mL. Provided that in the case of the compound of Example 10, 99.5% of 20% hydroxypropyl-β-cyclodextrin solution and 0.5% of 2N HCl […] were added.
The weight of each ICR mouse was properly 20-30 g. Dosage of the compound of the present invention was 10 mL/kg, and administered orally using Zonde. Blood collection was performed at 0.5, 1, 2, 4, 7 and 24 hours by orbital venous blood collection using a capillary tube coated with an anticoagulant, and then plasma was isolated using a centrifuge and kept in a freezer.
Plasma collected from animals and standard concentration material were pre-treated using solid-phase extraction, and concentration of the compound of the invention was determined using a liquid chromatography mass spectrometer (Agilent HPLC, API-4000 Qtrap). According to the resulting concentration value, the pharmacokinetics parameter was found using WinNonlin (Version 7.0) and half-life (t1/2), maximum blood concentration (Cmax) and area under the curve (AUCall) are represented in Table 2.

Row | AUC | Cmax | half-life | SMILES
1 | 1390 ng·h/mL | 570 ng/mL | 1.73 h | CN1CCN(C2=Nc3ccc(Br)cc3N3CC(=O)N=C23)CC1 [Example 12, 8-bromo-4-(4-methylpiperazin-1-yl)imidazo[1,2-a]quinoxalin-2(1H)-one]
2 | 920 ng·h/mL | 360 ng/mL | 2.04 h | CN1CCN(C2=Nc3ccc([N+](=O)[O-])cc3N3CC(=O)N=C23)CC1 [Example 10, 4-(4-methylpiperazin-1-yl)-8-nitroimidazo[1,2-a]quinoxalin-2(1H)-one]
3 | 8650 ng·h/mL | 2280 ng/mL | 3.81 h | CN1CCN(C2=Nc3ncc(Br)cc3N3CC(=O)N=C23)CC1 [Example 1, 8-bromo-4-(4-methylpiperazin-1-yl)imidazo[1,2-a]pyrido[2,3-e]pyrazin-2(1H)-one]

Biological target: T1, human histamine 4 receptor (hH4R) (Homo sapiens, UniProt Q9H3N8)
T1 construct: purchased Multispan
Assay: Binding affinity of human histamine 4 receptor (hH4R), [3H] histamine displacement
Details: [3H] labeled histamine, hH4R-overexpressed cell membrane
Protocol: The compounds prepared in the above Examples, the compound of Example 55 of International Publication No. WO 2010/030785 and the compound of Example 4 of International Publication No. WO 2013/048214 were diluted by 1,000 fold (v/w) with DMSO, and then 1 mL of the diluted compound solution was mixed with 99 mL of the analysis buffer solution (50 mM tris-HCl pH 7.4, 5 mM EDTA) to obtain concentration of 1 μM. […] of the prepared compound solution was transferred to each well of a 96-well plate, and then 20 mL of 100 μM histamine diluted with analysis buffer solution and 1% DMSO were transferred to each well to calculate non-specific binding and total binding degree. 15 μg of human histamine 4 receptor-overexpressed cell membrane (Multispan) was diluted into […] of analysis buffer solution and that was transferred to each well. [^3H] labeled histamine (PerkinElmer) was diluted into 10 nM concentration, 20 mL was allocated in each well, and then it was kept in a 27° C. incubator for 30 minutes. After the reaction, 100 mL of the mixture was transferred to a glass fiber plate in which 0.5% polyethylene amine was pre-soaked, and then non-binding [^3H] labeled histamine was removed in vacuum. After 6 times washing with 200 mL of washing buffer solution (50 mM tris-HCl, pH 7.4), the plate was dried in a 37° C. oven for 18 hours. […] of betaScint cocktail solution was added to each well, and after 10 minutes CPM (count per minute) value of [^3H] labeled histamine was measured by the use of Micro beta2™. The binding affinity (% inhibition) of the human histamine 4 receptor for the compounds of the present invention was analyzed by an Excel program, and the results of analysis are represented in Table 1.

Row | inhibition at 1 µM | Human histamine 4 receptor (hH4R) binding affinity (% inhibition at 1 μM) | SMILES
4 | -4.38% | – | CN[C@H]1CCN(C2=Nc3ncc(Br)cc3N3CC(=O)N=C23)C1 [Example 4, (S)-8-bromo-4-(3-(methylamino)pyrrolidin-1-yl)imidazo[1.2-a]pyrido[2.3-e]pyrazin-2(1H)-one]
5 | 86.3% | – | CN1CCN(C2=Nc3cc(Cl)ncc3N3CC(=O)N=C23)CC1 [Example 22, 3-chloro-6-(4-methylpiperazin-1-yl)imidazo[1,2-a]pyrido[4,3-e]pyrazin-8(9H)-one]
6 | – | 91.9% | CNC1CN(C2=Nc3cnc(Cl)cc3N3CC(=O)N=C23)C1 [Example 24, 8-chloro-4-(3-(methylamino)azetidin-1-yl)imidazo[1,2-a]pyrido[3,4-e]pyrazin-2(1H)-one]
7 | 96.8% | – | CN1CCN(C2=Nc3cnc(Cl)cc3N3CC(=O)N=C23)CC1 [Example 28, 8-chloro-4-(4-methylpiperazin-1-yl)imidazo[1,2-a]pyrido[3,4-e]pyrazin-2(1H)-one hydrochloride]
8 | 96% | – | CNC1CN(C2=Nc3ccc(Cl)cc3N3CC(=O)N=C23)C1 [Example 19, 8-chloro-4-(3-(methylamino)azetidin-1-yl)imidazo[1,2-a]quinoxalin-2(1H)-one]
9 | 9.8% | – | CN[C@@H]1CCN(C2=Nc3ncc(Br)cc3N3CC(=O)N=C23)C1 [Example 3, (R)-8-bromo-4-(3-(methylamino)pyrrolidin-1-yl)imidazo[1,2-a]pyrido[2,3-e]pyrazin-2(1H)-one]
10 | 94.4% | – | CN1CCN(C2=Nc3nc(F)c(Br)cc3N3CC(=O)N=C23)CC1 [Example 9, 8-bromo-7-fluoro-4-(4-methylpiperazin-1-yl)imidazo[1.2-a]pyrido[2,3-e]pyrazin-2(1H)-one]
11 | 79.7% | – | CN1CCN(C2=Nc3ncc(Br)cc3N3CC(=O)N=C23)CC1 [Example 1, 8-bromo-4-(4-methylpiperazin-1-yl)imidazo[1,2-a]pyrido[2,3-e]pyrazin-2(1H)-one]
12 | 52.6% | – | CN1CCN(C2=Nc3ccc(Br)cc3N3CC(=O)NN=C23)CC1 [Example 14, 9-bromo-5-(4-methylpiperazin-1-yl)-1H -[1,2,4]triazino[43-a]quinoxalin-2(3H)-one]
13 | 97.7% | – | CNC1CN(C2=Nc3ccc(Cl)nc3N3CC(=O)N=C23)C1 [Example 31, 2-chloro-6-(3-(methylamino)azetidin-1-yl)imidazo[1,2-a]pyrido[3,2-e]pyrazin-8(9H)-one]
14 | 93.4% | – | CNC1CN(C2=Nc3cnc(Br)cc3N3CC(=O)N=C23)C1 [Example 26, 8-bromo-4-(3-(methylamino)azetidin-1-yl)imidazo[1,2-a]pyrido[3,4-e]pyrazin-2(1H)-one]
15 | 20.5% | – | CNC1CN(C2=Nc3ncc(Cl)cc3N3CC(=O)N=C23)C1 [Example 20, 8-chloro-4-(3-(methylamino)azetidin-1-yl)imidazo[1,2-a]pyrido[2,3-e]pyrazin-2(1H)-one]
16 | 39.5% | – | CNC1CN(C2=Nc3ncc(Br)cc3N3CC(=O)N=C23)C1 [Example 2, 8-bromo-4-(3-(methylamino)azetidin-1-yl)imidazo[1,2-a]pyrido[2,3-e]pyrazin-2(1H)-one]
17 | -5.98% | – | CNC1CN(C2=Nc3ccc(NS(C)(=O)=O)cc3N3CC(=O)N=C23)C1 [Example 16, N-(4-(3-(methylamino)azetidin-1-yl)-2-oxo-1,2-dihydroimidazo[1,2-a]quinoxalin-8-yl)methanesulfonamide]
18 | 93.2% | – | CN1CCN(C2=Nc3ccc(Br)nc3N3CC(=O)N=C23)CC1 [Example 30, 2-bromo-6-(4-methylpiperazin-1-yl)imidazo[1,2-a]pyrido[3,2-e]pyrazin-8(9H)-one]
19 | 42.6% | – | CN1CCN(c2nc3ncc(Br)cc3n3c(=O)[nH]nc23)CC1 [Example 6, 8-bromo-4-(4-methylpiperazin-1-yl)pyrido[2,3-e][1,2,4] triazolo[4,3-a]pyrazin-1(2H)-one]
20 | 89.4% | – | CNC1CN(C2=Nc3cnc(Cl)cc3N3CC(=O)N=C23)C1 [Example 23, 8-chloro-4-(3-(methylamino)azetidin-1-yl)imidazo[1.2-a]pyrido[3.4-e]pyrazin-2(1H)-one hydrochloride]

The remaining lines, values behind:

Row | SMILES | inhibition at 1 µM | Human histamine 4 receptor (hH4R) binding affinity (% inhibition at 1 μM)
21 | CN1CCN(C2=Nc3ccc(Br)cc3N3CC(=O)N=C23)CC1 [Example 12, 8-bromo-4-(4-methylpiperazin-1-yl)imidazo[1,2-a]quinoxalin-2(1H)-one] | 101% | –
22 | CNC1CN(C2=Nc3ccc(Br)cc3N3CC(=O)N=C23)C1 [Example 21, 8-bromo-4-(3-(methylamino)azetidin-1-yl)imidazo[1,2-a]quinoxalin-2(1H)-one hydrochloride] | 95.9% | –
23 | CN1CCN(C2=Nc3ncc(Cl)cc3N3CC(=O)N=C23)CC1 [Example 17, 8-chloro-4-(4-methylpiperazin-1-yl)imidazo[1,2-a]pyrido[2,3-e]pyrazin-2(1H)-one] | 87.1% | –
24 | CNC1CN(C2=Nc3ccc(N)cc3N3CC(=O)N=C23)C1 [Example 18, 8-amino-4-(3-(methylamino)azetidin-1-yl)imidazo[1,2-a]quinoxalin-2(1H)-one] | 34.1% | –
25 | CN1CCN(C2=Nc3ccc(Br)c(Br)c3N3CC(=O)N=C23)CC1 [Example 15, 8,9-dibromo-4-(4-methylpiperazin-1-yl)imidazo[1,2-a]quinoxalin-2(1H)-one] | 99.2% | –
26 | CN1CCN(C2=Nc3nc(Cl)c(Br)cc3N3CC(=O)N=C23)CC1 [Example 8, 8-bromo-7-chloro-4-(4-methylpiperazin-1-yl)imidazo[1,2-a]pyrido[2,3-e]pyrazin-2(1H)-one] | 88.9% | –
27 | CN1CCN(C2=Nc3ccc(N)cc3N3CC(=O)N=C23)CC1 [Example 11, 8-amino-4-(4-methylpiperazin-1-yl)imidazo[1,2-a]quinoxalin-2(1H)-one] | 44.8% | –
28 | CN1CCN(c2nc3ncc(Br)cc3n3[nH]c(=O)nc23)CC1 [Example 7, 8-bromo-4-(4-methylpiperazin-1-yl)pyrido[2,3-e][1,2,4] triazolo[1,5-a]pyrazin-2(1H)-one] | -1.12% | –
29 | CN1CCN(C2=Nc3ccc([N+](=O)[O-])cc3N3CC(=O)N=C23)CC1 [Example 10, 4-(4-methylpiperazin-1-yl)-8-nitroimidazo[1,2-a]quinoxalin-2(1H)-one] | 98.1% | –
30 | O=C1CN2C(=N1)C(N1CCN3CCCC3C1)=Nc1ncc(Br)cc12 (stereo not shown) [Example 5, 8-bromo-4-(hexahydropyrrolo[1,2-a]pyrazin-2(1H)-yl)imidazo[1,2-a]pyrido[2,3-e]pyrazin-2(1H)-one] | 55.9% | –
31 | CNC1CN(C2=Nc3ccc(Br)nc3N3CC(=O)N=C23)C1 [Example 32, 2-bromo-6-(3-(methylamino)azetidin-1-yl)imidazo[1,2-a]pyrido[3,2-e]pyrazin-8(9H)-one] | 97.4% | –
32 | CN1CCN(C2=Nc3cnc(Br)cc3N3CC(=O)N=C23)CC1 [Example 25, 8-bromo-4-(4-methylpiperazin-1-yl)imidazo[1,2-a]pyrido[3,4-e]pyrazin-2(1H)-one] | 96.9% | –
33 | CN1CCN(C2=Nc3ccc(Cl)nc3N3CC(=O)N=C23)CC1 [Example 29, 2-chloro-6-(4-methylpiperazin-1-yl)imidazo[1,2-a]pyrido[3,2-e]pyrazin-8(9H)-one] | 97.3% | –
34 | CN1CCN(C2=Nc3ncc(Br)cc3N3CS(=O)(=O)N=C23)CC1 [Example 27, 8-bromo-4-(4-methylpiperazin-1-yl)-1H-pyrido[2,3-e][1,2,4]thiadiazolo[4,3-a]pyrazin 2,2-dioxide] | 22.6% | –
